Experiments:
[1] = tested on: castrated male Sprague Dawley rats; assay: Ventral prostate and seminal vesicle weight in vivo assay; set-up: species or system rat; key: A test compound was said to be “active” if the non weight adjusted prostate weight was ≦60 mg or ≧84 mg; they are listed herein as “inactive” as they did not meet the specified criteria defined above; conditions: immature castrated rats, once daily for five days, usually orally 40 mg/kg, with testosterone propionate 2 mg/kg s.c.
Description: Immature (approximately 50 g) castrated male Sprague Dawley rats (Charles River) were treated once daily for five days with test compound (usually given orally at 40 mg/kg in a volume of 0.3 mL, in 30% cyclodextrin or 0.5% methylcellulose vehicle) and with testosterone propionate (given subcutaneously by injection at the nape of the neck at 2 mg/kg, in a volume of 0.1 mL in sesame oil). On the sixth day, the rats were euthanized by asphyxiation in carbon dioxide. Ventral prosatates and seminal vesicles were removed and their wet weights determined. Test compound activity was determined as the percent inhibition of testosterone-enhanced tissue weights, with a vehicle-treated control group set to zero percent and a testosterone alone-treated control group set to 100%.
A test compound was said to be “active” if the non weight adjusted prostate weight was ≦60 mg or ≧84 mg.

androgen receptor [2] = target: T1, androgen receptor (Rattus norvegicus, UniProt P15207); assay: Androgen receptor binding using rat ventral prostate cytosol; set-up: Male Sprague Dawley or Wistar rats (Charles River, 200-300 g) were used for each preparation; from tissue; host or cells: ventral prostate cytosol of castrated male Sprague Dawley or Wistar rats
T1 sequence (P15207 1-902): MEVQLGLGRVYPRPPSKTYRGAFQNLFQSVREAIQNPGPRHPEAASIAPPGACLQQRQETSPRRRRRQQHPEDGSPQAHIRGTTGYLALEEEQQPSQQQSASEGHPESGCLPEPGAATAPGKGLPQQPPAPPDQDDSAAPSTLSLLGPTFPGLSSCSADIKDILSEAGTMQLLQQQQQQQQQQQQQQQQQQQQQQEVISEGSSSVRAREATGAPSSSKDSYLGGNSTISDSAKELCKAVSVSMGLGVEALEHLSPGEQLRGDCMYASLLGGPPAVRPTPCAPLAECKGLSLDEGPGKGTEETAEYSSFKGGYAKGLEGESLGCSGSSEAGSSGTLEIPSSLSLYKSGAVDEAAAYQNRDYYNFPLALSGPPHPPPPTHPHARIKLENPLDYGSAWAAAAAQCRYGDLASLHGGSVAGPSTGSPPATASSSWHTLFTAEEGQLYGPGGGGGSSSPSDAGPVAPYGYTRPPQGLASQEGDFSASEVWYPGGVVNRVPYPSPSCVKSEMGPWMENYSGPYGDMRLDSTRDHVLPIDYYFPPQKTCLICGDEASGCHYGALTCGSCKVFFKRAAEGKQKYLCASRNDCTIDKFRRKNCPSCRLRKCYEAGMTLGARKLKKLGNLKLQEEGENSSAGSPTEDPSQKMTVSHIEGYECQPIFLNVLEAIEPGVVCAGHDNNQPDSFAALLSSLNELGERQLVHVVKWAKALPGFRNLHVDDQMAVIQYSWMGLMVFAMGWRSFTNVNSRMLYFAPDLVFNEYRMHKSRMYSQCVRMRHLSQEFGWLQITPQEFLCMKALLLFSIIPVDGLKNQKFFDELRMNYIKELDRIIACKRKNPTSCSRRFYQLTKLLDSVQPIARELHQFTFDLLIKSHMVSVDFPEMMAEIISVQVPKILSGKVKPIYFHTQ

androgen receptor [3] = target: T1, androgen receptor; assay: L929 androgen receptor functional assay, adenovirus transduction; assay type: cell-based; set-up: expressed in transfected cells; conditions: 3 μM, L929 cells; for % Activition @ 3 μM: agonist testing (no R1881), luciferase
Description: L929 cells were plated in 96-well plates at 20,000 cells per well, in DMEM/F12 (GIBCO) containing 10% (v/v) charcoal-treated fetal bovine serum (Hyclone) and lacking phenol red. The plates were then incubated overnight at 37° C. in 5% (v/v) humidified CO2.
Test compound dilutions were prepared in 100% (v/v) DMSO, if necessary. Each dilution was made to 1250× the final desired assay concentration. First, 2 mL of DMEM/F12 lacking phenol red was pipetted into the wells of a 2-mL 96-well assay block. Next, 4 μL of the 1250× test compound dilutions were pipetted into each well of the assay block. The mixtures within the well were then carefully mixed by pipette.
In a 15 mL or 50 mL sterile centrifuge tube, a 2.5 nM (2.5×) dilution of R1881 (methyl-trienolone) in DMEM/F12 lacking phenol red was prepared. In a second 15 mL or 50 mL centrifuge tube a solution containing an equal volume of DMEM to the first and an equal volume of 100% (v/v) DMSO to the volume of R1881 used in the first tube was prepared.
In a 15 mL or 50 mL sterile centrifuge tube, a dilution in DMEM/F12 of the adenovirus AdEasy+rAR at an moi of 1:500 per well was prepared. The medium was removed from the 96-well plates by inversion and dried, inverted, very briefly. As soon as possible after medium removal, 40 μL of the diluted unlabeled test compound was added to each well, in duplicate. To each well designated for antagonist testing was added 40 μL of the 2.5 nM R1881 dilution to the wells for antagonist testing. To each well designated for agonist testing was added 40 μL of the DMSO dilution. Then 20 μL of the diluted adenovirus were added to all wells. The plates were incubated for 48 hours at 37° C. in 5% (v/v) humidified CO2.
To each well was added 100 μL of Steady-Glo luciferase assay substrate (Promega) and the plates were placed on a rotary shaker for 1 min. The plates were then incubated at room temperature in the dark for one hour. The contents of each well were then transferred to a white microtiter plate (Packard) and read on a Luminoskan Ascent (Thermo Lab Systems).
L929 AR percent activity was determined by testing dilutions of the test compound using a concentration of 3000 nM unless otherwise noted. L929 percent inhibition was determined by testing dilutions of the test compound using a concentration of 3000 nM. EC50s and IC50s were determined by testing serial dilutions of the test compound (usually duplicate ten half-log dilutions starting at 10 μM). Luciferase activity per well were measured and EC50s and IC50s determined by linear regression.
Representative compounds of the present invention were tested for functional activity at the androgen receptor according to the procedure described above with results as listed in Table 4.

androgen receptor [4] = target: T1, androgen receptor; assay: COS-7 whole-cell androgen receptor binding assay, adenovirus transduction; set-up: expressed in transfected cells; conditions: 3 μM (3000 nM); COS-7 cells, [3H]R1881, AdEasy+rAR
Description: COS-7 cells were plated in 96-well plates at 20,000 cells per well, in a solution of DMEM/F12 (GIBCO) containing 10% (v/v) charcoal-treated fetal bovine serum (Hyclone) and lacking phenol red. The cells were then incubated overnight at 37° C. in 5% (v/v) humidified CO2.
Test compound solutions were prepared by diluting the test compound in 100% (v/v) DMSO, if necessary. Each dilution yielded a solution which was 625× the final desired test concentration.
Next, 1 mL of DMEM/F12 lacking phenol red was pipetted into each of the wells of a 2-mL 96-well assay block. Then 4 μL of the 625× test compound dilutions were pipetted into each well of the assay block. The wells were carefully mixed by pipette.
In a 15 mL or 50 mL sterile centrifuge tube, a 2.5 nM dilution of tritiated methyl-trienolone in DMEM/F12 lacking phenol red ([^3H]R1881; Perkin-Elmer) was prepared.
In a 15 mL or 50 mL sterile centrifuge tube, a dilution in DMEM/F12 of the adenovirus AdEasy+rAR at a moi of 1:50 per well was prepared.
The medium was removed from the 96-well plates by inversion and the plates dried very briefly, inverted, on a sterile towel. As soon as possible after medium removal, 40 μL of the diluted test compound was added to each well, in duplicate. To each well was then added 40 μL of the 2.5 nM [^3H]R1881 and 20 μL of the diluted adenovirus. The plates were then incubated for 48 hours at 37° C. in 5% (v/v) humidified CO2.
The medium was removed from the above incubated plates by inversion and dried. Each well was then washed with 0.35 mL of 1×PBS. The PBS was then removed from the plates by inversion and the plates dried.
To each well was then added 50 μL of 0.5% (v/v) Triton X-100 (Sigma) in 1×PBS and the plates placed on a rotary shaker for 5 min. The contents of each well were then transferred to an OptiPlate-96 (Packard) scintillation plate. To each well was then added 0.2 mL of Microscint-20 (Packard) and the wells counted on a TopCount (Packard).
Percent inhibition was determined by testing dilutions of the test compound (usually duplicates of 10 μM) in the binding assay. Counts per well were measured and percents of inhibition determined. Androgen receptor binding IC50s were determined by testing serial dilutions of the test compound (usually duplicate ten half-log dilutions starting at 10 μM) in the binding assay. Counts per well were measured and IC50s determined by linear regression.
Representative compounds of the present invention were tested for binding to the androgen receptor according to the procedure described above with results as listed in Table C. Unless otherwise noted, COS binding % inhibition was determined using a concentration of 3000 nM. For compounds tested more than once, each result is listed separately in Table 3 below.

[5] = antagonist testing with R1881, luciferase

Row | Structure (SMILES) | active / inactive by non weight adjusted prostate weight [1] | inhibition at 3 µM (androgen receptor [2]) [%] | % Activition @ 3 μM (androgen receptor [3]) [%] | inhibition at 3 µM (androgen receptor [3]; antagonist testing with R1881, luciferase, read-out: % Inhibition @ 3 μM) [%] | % Inhibition @ 3 μM (androgen receptor [2]) [%] | % Inhibition @ 3 μM (androgen receptor [4]) [%] | % Inhibition @ 3 μM (androgen receptor [3]; [5]) [%]
1 | COC(=O)C1(C)CN(c2ccc(F)cc2)C(=O)N1 (stereo not shown) [Compound 4a, 1-(4-Fluoro-phenyl)-4-methyl-2-oxo-imidazolidine-4-carboxylic acid methyl ester] | inactive | -57 | 0 | -20 |  |  | 
2 | CC1(C(=O)Nc2ccc(Cl)c(C(F)(F)F)c2)CN(c2ccc(F)cc2)C(=O)N1 (racemic) [Compound 6f] |  |  | 3 |  | 66 | 35 | 85
3 | CC1(C(=O)O)CN(c2ccc(C#N)c(C(F)(F)F)c2)C(=O)N1 (racemic) [Compound 5e] | active |  | 0 |  | −67 |  | 30
4 | CC1(C(=O)Nc2ccc(C#N)c(C(F)(F)F)c2)CN(Cc2ccc(F)cc2)C(=O)N1 (racemic) [Compound 6i] |  |  | 0 |  | 4 | 28 | 76
